Reference: ChEMBL document CHEMBL1133283, “Arylsulfonyl-N,N-diethyl-dithiocarbamates: a novel class of antitumor agents” (Bioorg Med Chem Lett, 2000)

Key:
Assay type in all cases: functional
Settings in all cases: Homo sapiens
HOP-62 = assay: In vitro growth inhibition of compound was determined against HOP-62 cell lines of non-small cell lung cancer
786-0 = assay: In vitro growth inhibition of compound was determined against […] cell lines of Renal cancer
OVCAR-3 = assay: In vitro growth inhibition of compound was determined against OVCAR-3 cell lines of Ovarian cancer
UACC-257 = assay: In vitro growth inhibition of compound was determined against UACC-257 cell lines of Melanoma
SK-MEL-5 = assay: In vitro growth inhibition of compound was determined against SK-MEL-5 cell lines of Melanoma
KM12 = assay: In vitro growth inhibition of compound was determined against KM12 cell lines of colon cancer
OVCAR-4 = assay: In vitro growth inhibition of compound was determined against OVCAR-4 cell lines of Ovarian cancer
IGROV-1 = assay: In vitro growth inhibition of compound was determined against IGROVI cell lines of Ovarian cancer
TK-10 = assay: In vitro growth inhibition of compound was determined against TK-10 cell lines of Renal cancer
LOX IMVI = assay: In vitro growth inhibition of compound was determined against LOX IMVI cell lines of Melanoma
CAKI-1 = assay: In vitro growth inhibition of compound was determined against CAKI-1 cell lines of Renal cancer
MDA-N = assay: In vitro growth inhibition of compound was determined against MDA-Ncell lines of Breast cancer
SF-295 = assay: In vitro growth inhibition of compound was determined against SF-295 cell lines of CNS cancer
NCI-H226 = assay: In vitro growth inhibition of compound was determined against NCI-H226 cell lines of non-small cell lung cancer
NCI-H522 = assay: In vitro growth inhibition of compound was determined against NCI-H522 cell lines of non-small cell lung cancer
RPMI-8226 = assay: In vitro growth inhibition of compound was determined against RPMI-8226 cell lines of Leukemia
SNB-75 = assay: In vitro growth inhibition of compound was determined against SNB-75 cell lines of CNS cancer
ACHN = assay: In vitro growth inhibition of compound was determined against ACHN cell lines of Renal cancer
OVCAR-8 = assay: In vitro growth inhibition of compound was determined against OVCAR-8 cell lines of Ovarian cancer
HCC 2998 = assay: In vitro growth inhibition of compound was determined against HCC2998 cell lines of colon cancer
MDA-MB-435 = assay: In vitro growth inhibition of compound was determined against MDA-MB-435 cell lines of Breast cancer
K562 = assay: In vitro growth inhibition of compound was determined against K-562 cell lines of Leukemia
BT-549 = assay: In vitro growth inhibition of compound was determined against BT-549 cell lines of Breast cancer
COLO 205 = assay: In vitro growth inhibition of compound was determined against COLO-205 cell lines of colon cancer
NCI/ADR-RES = assay: In vitro growth inhibition of compound was determined against NCI/ADR-RES cell lines of Breast cancer
HL-60 = assay: In vitro growth inhibition of compound was determined against HL-60(TB) cell lines of Leukemia
Malme-3M = assay: In vitro growth inhibition of compound was determined against MALME-3M cell lines of Melanoma
Hs-578T = assay: In vitro growth inhibition of compound was determined against Hs 578.T cell lines of Breast cancer
PC-3 = assay: In vitro growth inhibition of compound was determined against PC-3 cell lines of Prostate cancer
RXF 393 = assay: In vitro growth inhibition of compound was determined against RXF393 cell lines of Renal cancer
SR = assay: In vitro growth inhibition of compound was determined against SR cell lines of Leukemia
HOP-92 = assay: In vitro growth inhibition of compound was determined against HOP-92 cell lines of non-small cell lung cancer
MCF7 = assay: In vitro growth inhibition of compound was determined against MCF-7 cell lines of Breast cancer
M14 = assay: In vitro growth inhibition of compound was determined against M14 cell lines of Melanoma
DU-145 = assay: In vitro growth inhibition of compound was determined against DU-145 cell lines of Prostate cancer
U-251 = assay: In vitro growth inhibition of compound was determined against U251 cell lines of CNS cancer
CCRF-CEM = assay: In vitro growth inhibition of compound was determined against CCRF-CEM cell lines of Leukemia
UO-31 = assay: In vitro growth inhibition of compound was determined against UO-31 cell lines of Renal cancer
HCT-116 = assay: In vitro growth inhibition of compound was determined against HCT116 cell lines of colon cancer
SF-539 = assay: In vitro growth inhibition of compound was determined against SF-539 cell lines of CNS cancer
SF-268 = assay: In vitro growth inhibition of compound was determined against SF-268 cell lines of CNS cancer
A549 = assay: In vitro growth inhibition of compound was determined against A549/ATCC cell lines of non-small cell lung cancer
SN12C = assay: In vitro growth inhibition of compound was determined against SN12C cell lines of Renal cancer
MDA-MB-231 = assay: In vitro growth inhibition of compound was determined against MDA-MB-231/ATCC cell lines of Breast cancer
MOLT-4 = assay: In vitro growth inhibition of compound was determined against MOLT-4 cell lines of Leukemia
SW-620 = assay: In vitro growth inhibition of compound was determined against SW-620 cell lines of colon cancer
SK-MEL-28 = assay: In vitro growth inhibition of compound was determined against SK-MEL-28 cell lines of Melanoma
HCT-15 = assay: In vitro growth inhibition of compound was determined against HCT-15 cell lines of colon cancer
HT-29 = assay: In vitro growth inhibition of compound was determined against HT-29 cell lines of colon cancer

Compound: CCN(CC)C(=S)SS(=O)(=O)c1ccc(N)cc1
- GI50 (HOP-62): 33 µM
- GI50 (786-0): 3 µM
- GI50 (OVCAR-3): > 100 µM
- GI50 (UACC-257): > 100 µM
- GI50 (SK-MEL-5): 13 µM
- GI50 (KM12): 22 µM
- GI50 (OVCAR-4): > 100 µM
- GI50 (IGROV-1): 5 µM
- GI50 (TK-10): > 100 µM
- GI50 (LOX IMVI): > 100 µM
- GI50 (CAKI-1): 22 µM
- GI50 (MDA-N): 65 µM
- GI50 (SF-295): > 100 µM
- GI50 (NCI-H226): 98 µM
- GI50 (NCI-H522): 1 µM
- GI50 (RPMI-8226): 22 µM
- GI50 (SNB-75): 48 µM
- GI50 (ACHN): 61 µM
- GI50 (OVCAR-8): > 100 µM
- GI50 (HCC 2998): 8 µM
- GI50 (MDA-MB-435): > 100 µM
- GI50 (K562): 34 µM
- GI50 (BT-549): > 100 µM
- GI50 (COLO 205): > 100 µM
- GI50 (NCI/ADR-RES): > 100 µM
- GI50 (HL-60): > 100 µM
- GI50 (Malme-3M): 46 µM
- GI50 (Hs-578T): 83 µM
- GI50 (PC-3): 90 µM
- GI50 (RXF 393): 22 µM
- GI50 (SR): 3 µM
- GI50 (HOP-92): 5 µM
- GI50 (MCF7): 5 µM
- GI50 (M14): 63 µM
- GI50 (DU-145): > 100 µM
- GI50 (U-251): > 100 µM
- GI50 (CCRF-CEM): > 100 µM
- GI50 (UO-31): 80 µM
- GI50 (HCT-116): > 100 µM
- GI50 (SF-539): 21 µM
- GI50 (SF-268): > 100 µM
- GI50 (A549): 7 µM
- GI50 (SN12C): > 100 µM
- GI50 (MDA-MB-231): > 100 µM
- GI50 (MOLT-4): 2 µM
- GI50 (SW-620): > 100 µM
- GI50 (SK-MEL-28): > 100 µM
- GI50 (HCT-15): > 100 µM

Compound: CCN(CC)C(=S)SS(=O)(=O)c1ccccc1C(=O)O
- GI50 (HOP-62): > 100 µM
- GI50 (786-0): > 100 µM
- GI50 (OVCAR-3): > 100 µM
- GI50 (UACC-257): > 100 µM
- GI50 (SK-MEL-5): 37 µM
- GI50 (OVCAR-4): > 100 µM
- GI50 (IGROV-1): > 100 µM
- GI50 (LOX IMVI): > 100 µM
- GI50 (CAKI-1): > 100 µM
- GI50 (MDA-N): > 100 µM
- GI50 (SF-295): > 100 µM
- GI50 (NCI-H226): > 100 µM
- GI50 (NCI-H522): 1.2 µM
- GI50 (SNB-75): > 100 µM
- GI50 (ACHN): > 100 µM
- GI50 (OVCAR-8): > 100 µM
- GI50 (COLO 205): > 100 µM
- GI50 (HL-60): 1.4 µM
- GI50 (Malme-3M): 91 µM
- GI50 (PC-3): > 100 µM
- GI50 (RXF 393): > 100 µM
- GI50 (SR): 3.6 µM
- GI50 (HOP-92): > 100 µM
- GI50 (HT-29): > 100 µM
- GI50 (MCF7): > 100 µM
- GI50 (M14): > 100 µM
- GI50 (DU-145): > 100 µM
- GI50 (U-251): > 100 µM
- GI50 (CCRF-CEM): 82 µM
- GI50 (UO-31): > 100 µM
- GI50 (SF-268): > 100 µM
- GI50 (A549): 6.5 µM
- GI50 (MDA-MB-231): > 100 µM
- GI50 (SW-620): > 100 µM
- GI50 (SK-MEL-28): > 100 µM
- GI50 (HCT-15): > 100 µM
